Experimental data from patent US20240024488A1, “COMPOUNDS AND USES THEREOF” (Foghorn Therapeutics Inc., priority 2020, published 2024).

Assays:
HiBit-BRM fusion protein = target: T1, HiBit-BRM fusion protein (Homo sapiens, UniProt P51531); assay: HiBiT-BRM cell-based degradation assay (Nano-Glo HiBiT Lytic Detection, 24 h); settings: HeLa cell line expressing HiBiT-BRM; for DC50: read-out: BRM HiBit Degradation IC50
T1 construct: expressed in transfected cells
Summary of the method: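 HeLa cells stably expressing HiBiT-BRM were treated for 24 h with compounds (10-point 3-fold dilutions, 30 μM final top dose, in duplicate). HiBiT was detected by lytic LgBiT complementation luminescence. % degradation was normalized to DMSO (high control) and 2 μM of a reference BRM/BRG1 degrader (low control).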

[1] = target: T2, HiBit-BRG1 fusion protein (Homo sapiens, UniProt P51532); assay: HiBiT-BRG1 cell-based degradation assay (Nano-Glo HiBiT Lytic Detection, 24 h); settings: HeLa cell line expressing HiBit-BRG1 and LgBit; for Dmax: read-out: BRG1 HiBit Degradation Maximum (%); for DC50: read-out: BRMG1 HiBit Degradation IC50
T2 construct: expressed in transfected cells
T2 sequence (P51532 whole entry, the tested form may be a part): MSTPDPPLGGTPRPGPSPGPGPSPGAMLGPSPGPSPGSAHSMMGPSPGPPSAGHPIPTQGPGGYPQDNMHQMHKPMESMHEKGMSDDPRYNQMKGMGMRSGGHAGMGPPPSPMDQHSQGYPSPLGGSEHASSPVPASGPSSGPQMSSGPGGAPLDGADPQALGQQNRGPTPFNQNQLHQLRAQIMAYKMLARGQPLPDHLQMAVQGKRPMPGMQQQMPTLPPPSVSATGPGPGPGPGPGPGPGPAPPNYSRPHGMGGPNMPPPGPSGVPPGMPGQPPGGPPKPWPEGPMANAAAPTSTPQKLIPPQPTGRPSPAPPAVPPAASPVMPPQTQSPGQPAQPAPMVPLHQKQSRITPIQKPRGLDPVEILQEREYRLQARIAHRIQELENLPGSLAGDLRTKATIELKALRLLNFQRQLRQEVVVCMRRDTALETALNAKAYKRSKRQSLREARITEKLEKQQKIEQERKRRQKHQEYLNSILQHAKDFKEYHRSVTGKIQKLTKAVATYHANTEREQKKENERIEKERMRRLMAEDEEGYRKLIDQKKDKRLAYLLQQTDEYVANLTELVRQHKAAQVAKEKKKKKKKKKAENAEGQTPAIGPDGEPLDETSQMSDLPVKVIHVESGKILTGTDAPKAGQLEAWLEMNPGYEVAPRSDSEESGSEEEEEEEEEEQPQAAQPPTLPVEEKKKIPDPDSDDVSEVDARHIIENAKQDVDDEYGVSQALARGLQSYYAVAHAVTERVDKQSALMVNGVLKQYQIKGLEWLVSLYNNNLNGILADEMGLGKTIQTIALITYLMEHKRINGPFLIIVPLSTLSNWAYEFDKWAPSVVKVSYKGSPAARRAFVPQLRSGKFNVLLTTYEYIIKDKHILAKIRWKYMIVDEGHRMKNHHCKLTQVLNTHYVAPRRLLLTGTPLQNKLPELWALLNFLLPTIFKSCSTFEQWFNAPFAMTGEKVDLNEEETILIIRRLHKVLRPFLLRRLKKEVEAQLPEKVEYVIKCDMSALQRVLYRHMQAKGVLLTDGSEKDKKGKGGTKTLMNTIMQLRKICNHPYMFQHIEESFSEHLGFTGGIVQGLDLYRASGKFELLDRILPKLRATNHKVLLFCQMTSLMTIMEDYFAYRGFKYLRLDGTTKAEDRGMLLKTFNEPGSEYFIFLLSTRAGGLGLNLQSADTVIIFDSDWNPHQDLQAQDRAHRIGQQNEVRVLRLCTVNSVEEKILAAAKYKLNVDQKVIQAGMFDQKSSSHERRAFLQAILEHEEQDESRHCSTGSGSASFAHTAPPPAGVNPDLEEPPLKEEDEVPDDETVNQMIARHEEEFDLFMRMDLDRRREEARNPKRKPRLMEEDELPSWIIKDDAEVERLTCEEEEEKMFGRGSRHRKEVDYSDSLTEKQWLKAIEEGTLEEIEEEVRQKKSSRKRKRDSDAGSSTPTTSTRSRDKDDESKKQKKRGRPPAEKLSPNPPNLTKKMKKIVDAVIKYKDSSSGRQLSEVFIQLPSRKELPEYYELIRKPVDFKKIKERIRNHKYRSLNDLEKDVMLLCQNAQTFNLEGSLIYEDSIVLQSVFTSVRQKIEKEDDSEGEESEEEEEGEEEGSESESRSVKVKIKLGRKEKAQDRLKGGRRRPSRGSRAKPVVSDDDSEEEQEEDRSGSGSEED
Summary of the method: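 Stable HeLa line co-expressing HiBit-BRG1 and LgBit, 5000 cells/well, treated 24 h in a tissue culture incubator. Lysed with Nano-Glo HiBiT lytic reagent, luminescence read. % degradation normalized to DMSO (high control) and 2 μM reference BRM/BRG1 degrader (low control).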

T1 sequence (P51531 whole entry, the tested form may be a part): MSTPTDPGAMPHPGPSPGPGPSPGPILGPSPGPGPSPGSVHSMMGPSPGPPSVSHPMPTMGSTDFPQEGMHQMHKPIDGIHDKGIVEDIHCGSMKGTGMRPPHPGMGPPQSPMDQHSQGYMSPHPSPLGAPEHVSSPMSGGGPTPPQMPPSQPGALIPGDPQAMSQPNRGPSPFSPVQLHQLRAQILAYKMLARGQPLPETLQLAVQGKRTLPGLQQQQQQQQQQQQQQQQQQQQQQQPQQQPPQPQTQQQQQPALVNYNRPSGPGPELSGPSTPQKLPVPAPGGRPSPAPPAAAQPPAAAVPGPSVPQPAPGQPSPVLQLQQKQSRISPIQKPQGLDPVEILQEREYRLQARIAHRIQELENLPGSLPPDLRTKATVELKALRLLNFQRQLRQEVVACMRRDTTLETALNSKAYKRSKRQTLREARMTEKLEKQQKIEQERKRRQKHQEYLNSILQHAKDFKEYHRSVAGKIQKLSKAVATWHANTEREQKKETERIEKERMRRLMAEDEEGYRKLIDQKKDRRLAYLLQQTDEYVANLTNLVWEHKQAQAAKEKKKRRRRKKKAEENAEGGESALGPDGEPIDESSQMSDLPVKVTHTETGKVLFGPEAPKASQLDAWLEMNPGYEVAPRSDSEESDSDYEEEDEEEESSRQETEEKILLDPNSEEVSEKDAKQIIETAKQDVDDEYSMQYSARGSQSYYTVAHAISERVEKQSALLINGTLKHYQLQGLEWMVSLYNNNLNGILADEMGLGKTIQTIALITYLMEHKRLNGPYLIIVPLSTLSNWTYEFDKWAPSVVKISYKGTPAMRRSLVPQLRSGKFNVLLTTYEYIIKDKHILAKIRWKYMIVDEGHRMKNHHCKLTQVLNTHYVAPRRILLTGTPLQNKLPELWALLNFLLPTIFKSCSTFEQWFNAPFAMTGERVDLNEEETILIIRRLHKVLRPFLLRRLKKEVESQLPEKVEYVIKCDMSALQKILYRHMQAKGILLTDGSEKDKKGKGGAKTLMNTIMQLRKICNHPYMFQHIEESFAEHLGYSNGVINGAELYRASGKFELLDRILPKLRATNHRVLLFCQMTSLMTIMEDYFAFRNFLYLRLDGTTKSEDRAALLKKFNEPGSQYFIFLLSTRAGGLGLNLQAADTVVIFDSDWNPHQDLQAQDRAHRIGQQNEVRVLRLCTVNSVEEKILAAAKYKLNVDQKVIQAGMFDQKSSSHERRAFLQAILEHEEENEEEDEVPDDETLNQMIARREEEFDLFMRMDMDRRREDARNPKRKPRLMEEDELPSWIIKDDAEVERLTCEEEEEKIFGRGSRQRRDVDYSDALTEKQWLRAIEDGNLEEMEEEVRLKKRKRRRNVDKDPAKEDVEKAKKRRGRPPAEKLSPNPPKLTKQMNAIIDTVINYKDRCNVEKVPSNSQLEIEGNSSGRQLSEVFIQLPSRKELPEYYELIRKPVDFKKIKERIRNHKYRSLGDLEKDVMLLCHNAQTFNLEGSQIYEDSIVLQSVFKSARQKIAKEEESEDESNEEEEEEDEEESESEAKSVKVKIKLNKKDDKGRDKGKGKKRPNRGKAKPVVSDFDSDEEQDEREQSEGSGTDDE

| Compound | DC50 (HiBit-BRM fusion protein) [nM] | Dmax [1] [%] | DC50 [1] [nM] | BRM HiBit Degradation Maximum (%) (HiBit-BRM fusion protein) |
| --- | --- | --- | --- | --- |
| Cc1ncsc1-c1ccc([C@H](C)NC(=O)[C@@H]2C[C@@H](O)CN2C(=O)[C@@H](c2cc(OCCN3CC(c4[nH]c5nnc(-c6cc(F)cc(Cl)c6O)cc5c4C)C3)no2)C(C)C)cc1 (racemic) [Compound 129, (2S,4R)-1-((R)-2-(3-(2-(3-(3-(3-chloro-5-fluoro-2-hydroxyphenyl)-5-methyl-7H-pyrrolo[2,3-c]pyridazin-6-yl)azetidin-1-yl)ethoxy)isoxazol-5-yl)-3-methylbutanoyl)-4-hydroxy-N-((S)-1-(4-(4-methylthiazol-5-yl)phenyl)ethyl)pyrrolidine-2-carboxamide] | > 10 | > 50 | > 100 | A (“A” indicates maximum degradation ≥ 75%) |
| Cc1ncsc1-c1ccc([C@H](C)NC(=O)[C@@H]2C[C@@H](O)CN2C(=O)[C@@H](c2cc(OCCN3CC(c4[nH]c5nnc(-c6cc(F)ccc6O)cc5c4C)C3)no2)C(C)C)cc1 (racemic) [Compound 130, (2S,4R)-1-((R)-2-(3-(2-(3-(3-(5-fluoro-2-hydroxyphenyl)-5-methyl-7H-pyrrolo[2,3-c]pyridazin-6-yl)azetidin-1-yl)ethoxy)isoxazol-5-yl)-3-methylbutanoyl)-4-hydroxy-N-((S)-1-(4-(4-methylthiazol-5-yl)phenyl)ethyl)pyrrolidine-2-carboxamide] | < 10 | > 75 | > 100 | A (“A” indicates maximum degradation ≥ 75%) |
| Cc1ncsc1-c1ccc([C@H](C)NC(=O)[C@@H]2C[C@@H](O)CN2C(=O)[C@@H](c2cc(OCCN3C[C@@H]4[C@H](C3)[C@H]4c3[nH]c4nnc(-c5ccccc5O)cc4c3Cl)no2)C(C)C)cc1 (racemic) [Compound 131, (2S,4R)-1-[(2R)-2-(3-{2-[(1R,5S,6S)-6-[5-chloro-3-(2-hydroxyphenyl)-7H-pyrrolo[2,3-c]pyridazin-6-yl]-3-azabicyclo[3.1.0]hexan-3-yl]ethoxy}-1,2-oxazol-5-yl)-3-methylbutanoyl]-4-hydroxy-N-[(1S)-1-[4-(4-methyl-1,3-thiazol-5-yl)phenyl]ethyl]pyrrolidine-2-carboxamide] | > 10 | > 50 | > 100 | A (“A” indicates maximum degradation ≥ 75%) |
| Cc1ncsc1-c1ccc([C@H](C)NC(=O)[C@@H]2C[C@@H](O)CN2C(=O)[C@@H](c2cc(OCCNC3CC[C@]34C[C@H](c3cc5cc(-c6ccccc6O)nnc5[nH]3)C4)no2)C(C)C)cc1 (mixture of isomers) [Compound 132, (2S,4R)-4-hydroxy-1-((R)-2-(3-(2-(((1S,4s,6S)-6-(3-(2-hydroxyphenyl)-7H-pyrrolo[2,3-c]pyridazin-6-yl)spiro[3.3]heptan-1-yl)amino)ethoxy)isoxazol-5-yl)-3-methylbutanoyl)-N-((S)-1-(4-(4-methylthiazol-5-yl)phenyl)ethyl)pyrrolidine-2-carboxamide] | > 10 | < 50 | – | A (“A” indicates maximum degradation ≥ 75%) |
| Cc1ncsc1-c1ccc([C@H](C)NC(=O)[C@@H]2C[C@@H](O)CN2C(=O)[C@@H](c2cc(OCCNC3CC[C@]34C[C@@H](c3cc5cc(-c6ccccc6O)nnc5[nH]3)C4)no2)C(C)C)cc1 (mixture of isomers) [Compound 133, (2S,4R)-4-hydroxy-1-((R)-2-(3-(2-(((1S,4r,6R)-6-(3-(2-hydroxyphenyl)-7H-pyrrolo[2,3-c]pyridazin-6-yl)spiro[3.3]heptan-1-yl)amino)ethoxy)isoxazol-5-yl)-3-methylbutanoyl)-N-((S)-1-(4-(4-methylthiazol-5-yl)phenyl)ethyl)pyrrolidine-2-carboxamide] | > 10 | > 50 | > 100 | A (“A” indicates maximum degradation ≥ 75%) |
| Cc1ncsc1-c1ccc([C@H](C)NC(=O)[C@@H]2C[C@@H](O)CN2C(=O)[C@@H](c2cc(OCCN3CC(C4(C)CNc5nnc(-c6ccccc6O)cc54)C3)no2)C(C)C)cc1 (mixture of isomers) [Compound 134] | – | < 50 | – | C (“C” indicates maximum degradation < 50%) |

More lines, main results first:

| DC50 (HiBit-BRM fusion protein) [nM] | Dmax [1] [%] | DC50 [1] [nM] | Compound | BRM HiBit Degradation Maximum (%) (HiBit-BRM fusion protein) |
| --- | --- | --- | --- | --- |
| > 10 | < 50 | – | Cc1ncsc1-c1ccc([C@H](C)NC(=O)[C@@H]2C[C@@H](O)CN2C(=O)[C@@H](c2cc(C3CN(Cc4cc5cc(-c6ccccc6O)nnc5[nH]4)C3)no2)C(C)C)cc1 (racemic) [Compound 138, (2S,4R)-4-hydroxy-1-((R)-2-(3-(1-((3-(2-hydroxyphenyl)-7H-pyrrolo[2,3-c]pyridazin-6-yl)methyl)azetidin-3-yl)isoxazol-5-yl)-3-methylbutanoyl)-N-((S)-1-(4-(4-methylthiazol-5-yl)phenyl)ethyl)pyrrolidine-2-carboxamide] | A (“A” indicates maximum degradation ≥ 75%) |
| > 100 | < 50 | – | Cc1ncsc1-c1ccc([C@H](C)NC(=O)[C@@H]2C[C@@H](O)CN2C(=O)[C@@H](c2cc(OCCN3CC(Oc4c[nH]c5nnc(-c6ccccc6O)cc45)C3)no2)C(C)C)cc1 (racemic) [Compound 139, (2S,4R)-4-hydroxy-1-[(2R)-2-{3-[2-(3-{[3-(2-hydroxyphenyl)-7H-pyrrolo[2,3-c]pyridazin-5-yl]oxy}azetidin-1-yl)ethoxy]-1,2-oxazol-5-yl}-3-methylbutanoyl]-N-[(1S)-1-[4-(4-methyl-1,3-thiazol-5-yl)phenyl]ethyl]pyrrolidine-2-carboxamide] | B (“B” indicates maximum degradation ≥ 50%) |
| – | < 50 | – | Cc1ncsc1-c1ccc([C@H](C)NC(=O)[C@@H]2C[C@@H](O)CN2C(=O)[C@@H](c2cc(OCCN3CC(c4cc5cc(-c6ccccc6O)nnc5n4C)C3)no2)C(C)C)cc1 (racemic) [Compound 140, (2S,4R)-4-hydroxy-1-((R)-2-(3-(2-(3-(3-(2-hydroxyphenyl)-7-methyl-7H-pyrrolo[2,3-c]pyridazin-6-yl)azetidin-1-yl)ethoxy)isoxazol-5-yl)-3-methylbutanoyl)-N-((S)-1-(4-(4-methylthiazol-5-yl)phenyl)ethyl)pyrrolidine-2-carboxamide] | C (“C” indicates maximum degradation < 50%) |
| > 10 | < 50 | – | Cc1ncsc1-c1ccc([C@H](C)NC(=O)[C@@H]2C[C@@H](O)CN2C(=O)[C@@H](c2cc(OCCN3C[C@@H]4[C@H](C3)[C@H]4c3cc4cc(-c5cccc(F)c5O)nnc4[nH]3)no2)C(C)C)cc1 (racemic) [Compound 142, (2S,4R)-1-((R)-2-(3-(2-((1R,5S,6R)-6-(3-(3-fluoro-2-hydroxyphenyl)-7H-pyrrolo[2,3-c]pyridazin-6-yl)-3-azabicyclo[3.1.0]hexan-3-yl)ethoxy)isoxazol-5-yl)-3-methylbutanoyl)-4-hydroxy-N-((S)-1-(4-(4-methylthiazol-5-yl)phenyl)ethyl)pyrrolidine-2-carboxamide] | A (“A” indicates maximum degradation ≥ 75%) |
